What was measured:
Type in all cases: cell-based
Moraxella catarrhalis = assay: MIC against Gram-negative bacteria: Moraxella catarrhalis
Outline: (§1)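 LB broth cultures at McFarland 0.5, spun down, resuspended, diluted to 5×10^5 CFU/mL final. Two-fold serial dilutions of purified human EGF domain proteins, triplicate. 37° C, 175 rpm shaking. Endpoint: no visible growth.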

Citrobacter diversus = assay: MIC against Gram-negative bacteria: Citrobacter diversus
Outline: as §1

E. coli BL21 = assay: MIC against Gram-negative bacteria: E. coli BL21
Outline: as §1

Proteus vulgaris = assay: MIC against Gram-negative bacteria: Proteus vulgaris
Outline: as §1

Enterobacter cloacae = assay: MIC against Gram-negative bacteria: Enterobacter cloacae
Outline: as §1

Pseudomonas aeruginosa = assay: MIC against Gram-negative bacteria: Pseudomonas aeruginosa
Outline: as §1

Proteus mirabilis = assay: MIC against Gram-negative bacteria: Proteus mirabilis
Outline: as §1

Serratia marcescens = assay: MIC against Gram-negative bacteria: Serratia marcescens
Outline: as §1

E. coli DH5α = assay: Antibacterial activity: MIC and growth curve against E. coli DH5α in 96-well plate; conditions: minimal inhibitory concentration against E. coli DH5α; 96-well plate, 5×10^5 CFU/mL, 37° C., judged after 8 h
Outline: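 Log-phase bacteria (OD600 ~0.5) resuspended in LB at 5×10^5 CFU/mL, exposed to recombinant protein at 50, 25, 12.5 μg/mL final in triplicate, 37 °C shaking at 175 rpm. OD600 read every 30 min; MIC is lowest concentration showing no growth.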

Aeromonas hydrophila = assay: MIC against Gram-negative bacteria: Aeromonas hydrophila
Outline: as §1

Klebsiella pneumonia = assay: MIC against Gram-negative bacteria: Klebsiella pneumonia
Outline: as §1

[1] = Moraxella catarrhalis, 96-well plate, 5×10^5 CFU/mL, 37° C., 10 h
[2] = Citrobacter diversus, 96-well plate, 5×10^5 CFU/mL, 37° C., 10 h
[3] = E. coli BL21, 96-well plate, 5×10^5 CFU/mL, 37° C., 10 h
[4] = Proteus vulgaris, 96-well plate, 5×10^5 CFU/mL, 37° C., 10 h
[5] = Enterobacter cloacae, 96-well plate, 5×10^5 CFU/mL, 37° C., 10 h
[6] = Pseudomonas aeruginosa, 96-well plate, 5×10^5 CFU/mL, 37° C., 10 h
[7] = Proteus mirabilis, 96-well plate, 5×10^5 CFU/mL, 37° C., 10 h
[8] = Serratia marcescens, 96-well plate, 5×10^5 CFU/mL, 37° C., 10 h
[9] = Aeromonas hydrophila, 96-well plate, 5×10^5 CFU/mL, 37° C., 10 h
[10] = Klebsiella pneumonia, 96-well plate, 5×10^5 CFU/mL, 37° C., 10 h
[11] = 10 h cultivation at 37° C., 5×10^5 CFU/mL, two-fold serial dilution

## PRT1215 (SNDPCVEKPCPGDMQCVSYEASRRPFLCQCPPGKLGECS; listed as Homo sapiens)
Moraxella catarrhalis; [1]
  MIC against M. catarrhalis: 50 µg/mL
Citrobacter diversus; [2]
  MIC against C. diversus: 25 µg/mL
E. coli BL21; [3]
  MIC against E. coli BL21: 50 µg/mL
Proteus vulgaris; [4]
  MIC against P. vulgaris: 12.5 µg/mL
Enterobacter cloacae; [5]
  MIC against E. cloacae: 50 µg/mL
Pseudomonas aeruginosa; [6]
  MIC against P. aeruginosa: 12.5 µg/mL
Proteus mirabilis; [7]
  MIC against P. mirabilis: 25 µg/mL
Serratia marcescens; [8]
  MIC against S. marcescens: 25 µg/mL
E. coli DH5α
  MIC: 25 µg/mL
Aeromonas hydrophila; [9]
  MIC against A. hydrophila: 12.5 µg/mL
Klebsiella pneumonia; [10]
  MIC against K. pneumonia: 25 µg/mL

## PRT218 (DINECDASNQCAQQCYNILGSFICQCNQGYELSSDRLNCE; listed as Homo sapiens)
Moraxella catarrhalis; M. catarrhalis, 10 h cultivation at 37° C., 5×10^5 CFU/mL
  MIC (μg/mL) M. catarrhalis: 50 µg/mL
Citrobacter diversus; C. diversus, 10 h cultivation at 37° C., 5×10^5 CFU/mL
  MIC (μg/mL) C. diversus: 25 µg/mL
E. coli BL21; E. coli BL21, 10 h cultivation at 37° C., 5×10^5 CFU/mL
  MIC (μg/mL) E. coli BL21: 50 µg/mL
Proteus vulgaris; P. vulgaris, 10 h cultivation at 37° C., 5×10^5 CFU/mL
  MIC (μg/mL) P. vulgaris: 50 µg/mL
Enterobacter cloacae; E. cloacae, 10 h cultivation at 37° C., 5×10^5 CFU/mL
  MIC (μg/mL) E. cloacae: 25 µg/mL
Pseudomonas aeruginosa; P. aeruginosa, 10 h cultivation at 37° C., 5×10^5 CFU/mL
  MIC (μg/mL) P. aeruginosa: 50 µg/mL
Proteus mirabilis; P. mirabilis, 10 h cultivation at 37° C., 5×10^5 CFU/mL
  MIC (μg/mL) P. mirabilis: 25 µg/mL
Serratia marcescens; S. marcescens, 10 h cultivation at 37° C., 5×10^5 CFU/mL
  MIC (μg/mL) S. marcescens: 25 µg/mL
E. coli DH5α
  MIC: 100 µg/mL
Aeromonas hydrophila; A. hydrophila, 10 h cultivation at 37° C., 5×10^5 CFU/mL
  MIC (μg/mL) A. hydrophila: 12.5 µg/mL
Klebsiella pneumonia; K. pneumonia, 10 h cultivation at 37° C., 5×10^5 CFU/mL
  MIC (μg/mL) K. pneumonia: 50 µg/mL

## PRT37 (IGVDCSDGFNGGCEQLCLQQMAPFPDDPTLYNILMFCGCIEDYKLGVDGRSCQ; listed as Homo sapiens)
Moraxella catarrhalis; [1]
  MIC (μg/mL) M. catarrhalis: 12.5 µg/mL
Citrobacter diversus; [2]
  MIC (μg/mL) C. diversus: 25 µg/mL
E. coli BL21; [3]
  MIC (μg/mL) E. coli BL21: 50 µg/mL
Proteus vulgaris; [4]
  MIC (μg/mL) P. vulgaris: 25 µg/mL
Enterobacter cloacae; [5]
  MIC (μg/mL) E. cloacae: 12.5 µg/mL
Pseudomonas aeruginosa; [6]
  MIC (μg/mL) P. aeruginosa: 25 µg/mL
Proteus mirabilis; [7]
  MIC (μg/mL) P. mirabilis: 12.5 µg/mL
Serratia marcescens; [8]
  MIC (μg/mL) S. marcescens: 12.5 µg/mL
E. coli DH5α
  MIC: 25 µg/mL
Aeromonas hydrophila; [9]
  MIC (μg/mL) A. hydrophila: 12.5 µg/mL
Klebsiella pneumonia; [10]
  MIC (μg/mL) K. pneumonia: 25 µg/mL

## PRT1122 (DVDECLSDPCLHGGTCSDTVAGYICRCPETWGGRDCS; listed as Homo sapiens)
Moraxella catarrhalis; [11]
  MIC M. catarrhalis: 50 µg/mL
Citrobacter diversus; [11]
  MIC C. diversus: 12.5 µg/mL
E. coli BL21; [11]
  MIC E. coli BL21: 12.5 µg/mL
Proteus vulgaris; [11]
  MIC P. vulgaris: 50 µg/mL
Enterobacter cloacae; [11]
  MIC E. cloacae: 50 µg/mL
Pseudomonas aeruginosa; [11]
  MIC P. aeruginosa: 50 µg/mL
Proteus mirabilis; [11]
  MIC P. mirabilis: 12.5 µg/mL
Serratia marcescens; [11]
  MIC S. marcescens: 12.5 µg/mL
E. coli DH5α
  MIC: 50 µg/mL
Aeromonas hydrophila; [11]
  MIC A. hydrophila: 25 µg/mL
Klebsiella pneumonia; [11]
  MIC K. pneumonia: 12.5 µg/mL

## PRT1242 (WGPECQQQCECVRGRCSAASGECTCPPGFRGARCE; listed as Homo sapiens)
Moraxella catarrhalis; [1]
  MIC against M. catarrhalis: 25 µg/mL
Citrobacter diversus; [2]
  MIC against C. diversus: 50 µg/mL
E. coli BL21; [3]
  MIC against E. coli BL21: 50 µg/mL
Proteus vulgaris; [4]
  MIC against P. vulgaris: 25 µg/mL
Enterobacter cloacae; [5]
  MIC against E. cloacae: 25 µg/mL
Pseudomonas aeruginosa; [6]
  MIC against P. aeruginosa: 25 µg/mL
Proteus mirabilis; [7]
  MIC against P. mirabilis: 12.5 µg/mL
Serratia marcescens; [8]
  MIC against S. marcescens: 50 µg/mL
E. coli DH5α
  MIC: 25 µg/mL
Aeromonas hydrophila; [9]
  MIC against A. hydrophila: 25 µg/mL
Klebsiella pneumonia; [10]
  MIC against K. pneumonia: 12.5 µg/mL

## PRT1253 (WPRQCPCLVDGARYWPGQRIKADCQLCICQDGRPRRCR; listed as Homo sapiens)
Moraxella catarrhalis; [1]
  MIC against M. catarrhalis: 12.5 µg/mL
Citrobacter diversus; [2]
  MIC against C. diversus: 25 µg/mL
E. coli BL21; [3]
  MIC against E. coli BL21: 12.5 µg/mL
Proteus vulgaris; [4]
  MIC against P. vulgaris: 50 µg/mL
Enterobacter cloacae; [5]
  MIC against E. cloacae: 12.5 µg/mL
Pseudomonas aeruginosa; [6]
  MIC against P. aeruginosa: 50 µg/mL
Proteus mirabilis; [7]
  MIC against P. mirabilis: 25 µg/mL
Serratia marcescens; [8]
  MIC against S. marcescens: 25 µg/mL
E. coli DH5α
  MIC: 50 µg/mL
Aeromonas hydrophila; [9]
  MIC against A. hydrophila: 50 µg/mL
Klebsiella pneumonia; [10]
  MIC against K. pneumonia: 25 µg/mL

## PRT998 (VPLCAPNLCQPKQICKDQKDKANCLCPDGSPGCA; listed as Homo sapiens)
Moraxella catarrhalis; M. catarrhalis, 10 h cultivation at 37° C.
  MIC: 12.5 µg/mL
Citrobacter diversus; C. diversus, 10 h cultivation at 37° C.
  MIC: 25 µg/mL
E. coli BL21; E. coli BL21, 10 h cultivation at 37° C.
  MIC: 50 µg/mL
Proteus vulgaris; P. vulgaris, 10 h cultivation at 37° C.
  MIC: 50 µg/mL
Enterobacter cloacae; E. cloacae, 10 h cultivation at 37° C.
  MIC: 12.5 µg/mL
Pseudomonas aeruginosa; P. aeruginosa, 10 h cultivation at 37° C.
  MIC: 12.5 µg/mL
Proteus mirabilis; P. mirabilis, 10 h cultivation at 37° C.
  MIC: 25 µg/mL
Serratia marcescens; S. marcescens, 10 h cultivation at 37° C.
  MIC: 25 µg/mL
E. coli DH5α
  MIC: 12.5 µg/mL
Aeromonas hydrophila; A. hydrophila, 10 h cultivation at 37° C.
  MIC: 50 µg/mL
Klebsiella pneumonia; K. pneumonia, 10 h cultivation at 37° C.
  MIC: 50 µg/mL
